Test results as given in US6433008B1, “α-aryl-N-alkylnitrones and pharmaceutical compositions containing the same” (Centaur Pharmaceuticals, Inc., priority 1997, dated 2002).

Legend:
[1] = test system: MBP-induced EAE in Lewis rats; experiment: Prevention of MBP-induced experimental allergic encephalomyelitis (EAE); format: in vivo; conditions: 100 mg/kg b.i.d. oral gavage, day 3 to day 16 post-inoculation
Experimental: Experimental allergic encephalomyelitis (EAE) induced by injection of guinea pig myelin basic protein (MBP) or MBP peptide fragments is reported to be a useful model for MS. See, for example, D. E. McFarlin et al., “Recurrent Experimental Allergic Encephalomyelitis in the Lewis Rat,” The Journal of Immnunology, 113(2): 712-715 (1974).
Female, Lewis rats of 8 weeks of age (180-250 g) were weighed and then given two intradermal injections (0.1 mL each) of 0.4 mg of M. tuberculin in 0.1 mL incomplete Freunds adjuvant and […] of myelin basic protein in 0.1 mL of saline into the base of the tail. Animals were weighed daily and given a clinical score beginning on Day 8, post inoculation, according to the following criteria:
2.5=Hind limb paralysis and front limb weakness
3.0=Hind and front limb paralysis
4.0=Moribund state or death
On day 3, post-inoculation animals were administered b.i.d either a test compound (100 mg/kg) or 1% methylcellulose vehicle by oral gavage up to and including day 16.

[2] = test system: rats injected with Aβ(25-35) and ibotenate into the hippocampus; experiment: Reduction of cognitive defects due to Aβ-peptide/ibotenate (Morris water maze); format: in vivo, Male Sprague-Dawley rats; conditions: 10 mg/kg oral gavage daily, Morris water maze 9-11 days after injection
Experimental: The procedures employed in this example are similar to those described in Dornan et al., NeuroReport 5, 165-168 (1993). Male Sprague-Dawley rats (200-300 g) were weighed and given 10 mg/kg of α-(2-ethoxyphenyl)-N-tert-butylnitrone or 1% methylcellulose by oral gavage. One hour later, the rats were stereotaxically injected into the CA1 region of their hippocampus with 8 nmol of Aβ(25-35) and 6 nmol of ibotenate per side (coordinates from bregma −3.6=AP, ±2.2=ML, −3.0=DV from the top of the dura). Controls were injected with PBS (pH 7.4). All injections were 1.5 μL in volume. The animals receiving PBS were orally dosed with 1% methylcellulose. Oral dosing continued daily until the end of the Morris water maze testing.
Nine to eleven days following injection, animals were tested in a Morris water maze task to measure spatial memory and learning. Animals were given three days of testing with four to six trials per day. The last trial on the fourth day was a probe trial where the platform was removed and time in quadrant and annulae crossings were determined. Following the behavioral testing, animals were perfused with 10% neutral formalin. The brain was post-fixed for 1 week in 10% formalin and then sliced for histological evaluation. Image analysis of cresyl violet staining was used to compare the neuronal loss (lesion volume) in the hippocampus between groups.

MRL/MpJ Fas^lpr mice = experiment: Reduction of cognitive deficits in autoimmune mice (T-maze task); format: in vivo; conditions: 100 mg/kg oral gavage daily for 8 to 9 weeks, Fas^lpr mice tested at 4 months of age
Experimental: MRL/MpJfas^lpr (“mutant mice” or “Fas^lpr”) strains of mice have been described as useful models of Lupus due to their autoimmune lymphoproliferative pathology. In particular, the mutant mice show a cognitive deficit at approximately four months of age, which is not observed at two months of age. See, for example, Forster et al., 1988, Behav. Neural Biology, 49, 139-151.
In the experiment, male MRL/MpJ Fas^lPr and normal MRL/MpJ++ mice of 8 weeks of age were weighed and administered 100 mg/kg of the test compound (either α-(2-ethoxyphenyl)-N-tert-butylnitrone or α-(4-ethoxyphenyl)-N-cyclohexylnitrone) or 1% methylcellulose vehicle by oral gavage daily for 8 to 9 weeks. At 4 months of age, the mice were tested for avoidance, discrimination, session criteria and acquisition in a one day T-maze task with a maximum of 25 trials. Criteria was met with four of five trials correct with the last two correct trials being consecutive in avoidance and discrimination.

## CCOc1cc(C=[N+]([O-])C(C)(C)CC(C)(C)C)ccc1OC [Example 45, α-(3-Ethoxy-4-methoxyphenyl)-N-tert-octylnitrone]
[1]
  CNS inflammatory deficit in acute EAE animals (clinical score): reduced the CNS inflammatory deficit

## CCOc1cc(C=[N+]([O-])C(C)(C)C)ccc1OC [Example 3, α-(3-Ethoxy-4-methoxyphenyl)-N-tert-butylnitrone]
[1]
  CNS inflammatory deficit in acute EAE animals (clinical score): reduced the CNS inflammatory deficit

## CCCCCCOc1ccc(C=[N+]([O-])C2CCCCC2)cc1OCC [Example 22, α-(3-Ethoxy-4-hexyloxyphenyl)-N-cyclohexylnitrone]
[1]
  CNS inflammatory deficit in acute EAE animals (clinical score): reduced the CNS inflammatory deficit

## CC(C)(C)[N+]([O-])=Cc1ccc(OCc2ccccc2)cc1 [Example 41, α-(4-Benzyloxyphenyl)-N-tert-butylnitrone]
[1]
  CNS inflammatory deficit in acute EAE animals (clinical score): reduced the CNS inflammatory deficit

## [O-][N+](=Cc1ccc(OCc2ccccc2)cc1)C1CCCC1 [Example 42, α-(4-Benzyloxyphenyl)-N-cyclopentylnitrone]
[1]
  CNS inflammatory deficit in acute EAE animals (clinical score): reduced the CNS inflammatory deficit

## CCCC[N+]([O-])=Cc1ccc(OCC)cc1 [Example 10, α-(4-ethoxyphenyl)-N-n-butylnitrone]
[1]
  CNS inflammatory deficit in acute EAE animals (clinical score): did not significantly reduce the CNS inflammatory deficit

## CCCCCCCCOc1ccc(C=[N+]([O-])C(C)(C)C)c(F)c1 [Example 29, α-(2-Fluoro-4-octyloxyphenyl)-N-tert-butylnitrone]
[1]
  CNS inflammatory deficit in acute EAE animals (clinical score): did not significantly reduce the CNS inflammatory deficit

## COc1cc(C=[N+]([O-])C(C)(C)C)ccc1OCc1ccccc1 [Example 5, α-(4-Benzyloxy-3-methoxyphenyl)-N-tert-butylnitrone]
[1]
  CNS inflammatory deficit in acute EAE animals (clinical score): did not significantly reduce the CNS inflammatory deficit

## CCOc1ccc(C=[N+]([O-])C2CCCCC2)cc1OC [Example 15, α-(4-Ethoxy-3-methoxyphenyl)-N-cyclohexylnitrone]
[1]
  CNS inflammatory deficit in acute EAE animals (clinical score): did not significantly reduce the CNS inflammatory deficit

## CCOc1ccccc1C=[N+]([O-])C(C)(C)C [Example 7, α-(2-Ethoxyphenyl)-N-tert-butylnitrone]
[2]
  Aβ peptide/ibotenate-induced learning deficit: reduced the Aβ peptide/ibotenate-induced learning deficit
MRL/MpJ Fas^lpr mice
  acquisition in T-maze task: reduced acquisition values
  avoidance in T-maze task: acquired avoidance skills earlier than untreated mutant mice
[1]
  CNS inflammatory deficit in acute EAE animals (clinical score): did not significantly reduce the CNS inflammatory deficit

## CCOc1cc(C=[N+]([O-])C(C)C)ccc1OC [Example 17, α-(3-Ethoxy-4-methoxyphenyl)-N-isopropyinitrone]
[1]
  CNS inflammatory deficit in acute EAE animals (clinical score): reduced the CNS inflammatory deficit

## CCOc1ccc(C=[N+]([O-])C(C)(C)C)cc1 [Example 4, α-(4-Ethoxyphenyl)-N-tert-butylnitrone]
[1]
  CNS inflammatory deficit in acute EAE animals (clinical score): did not significantly reduce the CNS inflammatory deficit

## CCOc1ccc(C=[N+]([O-])C2CCCCC2)cc1 [Example 11, α-(4-Ethoxyphenyl)-N-cyclohexylnitrone]
MRL/MpJ Fas^lpr mice
  acquisition in T-maze task: reduced acquisition values
  avoidance in T-maze task: acquired avoidance skills earlier than untreated mutant mice
[1]
  CNS inflammatory deficit in acute EAE animals (clinical score): reduced the CNS inflammatory deficit
